From patent US6759409B2, “Inhibitors of papilloma virus” (Boehringer Ingelheim (Canada) Ltd., priority 2000, dated 2004)

Molecular target: T1, HPV-11 E1-E2-DNA origin of replication complex (Human papillomavirus 11, UniProt P04015)
T1 construct: approximately 100-200 ng of purified E1
Test: E2-dependent E1 DNA binding assay (E1-E2 DNA assay)
Procedure: This particular assay determines the ability of a test compound to inhibit the activity (IC50) of HPV-11 DNA replication. More specifically, in the assay described herein, the inhibitory activity of the test compound is evaluated based on its ability to interfere with the E1-E2-DNA origin of replication interaction, thereby inhibiting initiation of viral DNA replication.
This assay was modeled on a similar assay for SV40 T Antigen described by McKay (J. Mol. Biol., 1981,145:471). A 400 bp radiolabeled DNA probe, containing the HPV-11 origin of replication (Chiang et al., 1992, Proc. Natl. Acad. Sci. USA 89:5799) was produced by pcr, using plasmid pBluescript™ SK encoding the origin (nucleotides 7886-61 of the HPV-11 genome in unique BAMH1 site) as template and primers flanking the origin. Radiolabel was incorporated as [^33P]dCTP. Binding assay buffer consisted of: 20 mM Tris pH 7.6, 100 mM NaCl, 1 mM DTT, 1 mM EDTA.
Other reagents used were protein A-SPA beads (type II, Amersham) and K72 rabbit polyclonal antiserum, raised against a peptide corresponding to the C-terminal 14 amino acids of HPV-11 E1. Following the protocol from Amersham, one bottle of beads was mixed with 25 mL of binding assay buffer. For the assay, a saturating amount of K72 antiserum was added to the beads and the mixture was incubated for 1 h, washed with one volume of binding assay buffer, and then resuspended in the same volume of fresh binding assay buffer. Binding reactions contained 8 ng of E2, approximately 100-200 ng of purified E1, and 0.4 ng of radiolabeled probe in a total of 80 μL of binding assay buffer. After 1 h at room temperature, 25 μL of K72 antibody-SPA bead suspension was added to with the binding reaction and mixed. After an additional hour of incubation at room temperature, the reactions were centrifuged briefly to pellet the beads and the extent of complex formation was determined by scintillation counting on a Packard TopCount™. Typically, the signal for reactions containing E1 and E2 was 20-30 fold higher than the background observed when either E1, E2, or both was omitted.

[1] = Table 1A, enantiomerically pure cis/cis isomer (form 1)
[2] = Table 1, racemic cis/cis isomer (form 1)

T1 sequence (P04015 whole entry, one chain of several): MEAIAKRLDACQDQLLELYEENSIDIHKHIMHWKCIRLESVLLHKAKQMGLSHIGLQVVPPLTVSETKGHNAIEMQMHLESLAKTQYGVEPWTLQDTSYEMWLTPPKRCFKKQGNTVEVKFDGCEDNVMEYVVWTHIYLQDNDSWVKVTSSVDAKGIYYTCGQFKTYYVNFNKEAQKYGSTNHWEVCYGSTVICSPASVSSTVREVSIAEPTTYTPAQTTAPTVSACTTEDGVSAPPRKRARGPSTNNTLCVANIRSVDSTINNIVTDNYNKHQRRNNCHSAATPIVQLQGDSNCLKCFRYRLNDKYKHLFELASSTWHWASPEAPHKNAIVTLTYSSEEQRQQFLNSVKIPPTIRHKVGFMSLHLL

Row | IC50 [2] [µM] | SMILES | also measured
1 | – | Cc1ccc2c(c1)C(=O)C1(OC(c3ccc(Cl)c(Cl)c3)C(C(=O)Nc3ccc(-c4csnn4)cc3)C1C(=O)O)C2=O (single isomer, unassigned) [A1007] | IC50 [1]: 0.5 to 5 µM
2 | – | Cc1ccc2c(c1)C(=O)C1(OC(c3ccc(Cl)c(Cl)c3)C(C(=O)Nc3ccc(-c4csnn4)cc3)C1C(=O)O)C2=O (single isomer, unassigned) [A1008] | IC50 [1]: < 0.5 µM
3 | 5 to 50 | CC(=O)c1ccc(NC(=O)C2C(c3ccc(Cl)c(Cl)c3)OC3(C(=O)c4cc5ccccc5cc4C3=O)C2C(=O)O)cc1 (stereo not shown) [compound 1090] | –
4 | 5 to 50 | CC(=O)c1ccc(NC(=O)C2C(c3ccc(Cl)c(Cl)c3)OC3(C(=O)c4ccc5ccccc5c4C3=O)C2C(=O)O)cc1 (stereo not shown) [compound 1091] | –
5 | 5 to 50 | CC(=O)c1ccc(NC(=O)C2C(c3ccc(Cl)c(Cl)c3)OC3(C(=O)c4ccc5ccccc5c4C3=O)C2C(=O)O)cc1 (stereo not shown) [compound 1095] | –
6 | – | CC(=O)c1ccc(NC(=O)C2C(/C=C/c3ccccc3)OC3(C(=O)c4ccccc4C3=O)C2C(=O)O)cc1 (stereo not shown) [compound 4005] | IC50 (Table 4, racemic cis/cis isomer (form 1)): 5 to 50 µM

Row | SMILES | IC50 [2] [µM] | also measured
7 | CCCCNC(=O)C1C(c2ccc(Cl)c(Cl)c2)OC2(C(=O)c3ccccc3C2=O)C1C(=O)O (stereo not shown) [compound 1050] | 0.5 to 5 | –
